Results from patent US7223733B2, “Modulation of TRIP-Br function and method of treating proliferative disorders” (National University of Singapore, priority 2004, dated 2007).
One block for each compound: values may come before it. [invdT] = inverted (3'-3') thymidine

What was measured:
U2OS cells = test: Cell cycle synchronization of U2OS cells, flow cytometry; assay type: cell-based, human; settings: 75 ng/ml, 22 h, data not shown
Procedure: Cell synchronization and cell cycle progression analyses. U2OS cells in 6-well dishes were subjected to nocodazole treatment (75 ng/ml) for 22 h. Thereafter, the nocodazole-arrested cultures were released by washing with 1×PBS and grown in DMEM plus 10% FBS containing either vehicle (0.5% DMSO) or 20 μM decoy peptides. Cells were harvested at 4-h intervals for standard Western blot analyses. For the analysis of Geminin protein profile, mock- or cyclin E/Cdk2-transfected U2OS cells were exposed to nocodazole (75 ng/ml) at 3 h post-transfection for 22 h.

FLAG-TRIP-Br1 protein = test: Immunoprecipitation assay with TB1-27#2 and peptide competition; assay type: binding, human; settings: lysates of transfected U2OS cells
Procedure: In an immunoprecipitation assay, fifty microliters of Protein A-agarose (Amersham) were incubated with 2 ml of TB1-27#2 spent media overnight. Each aliquot of agarose was washed and added to the lysates of variously transfected U2OS cells. The TB1-27 and Cyr61 peptides were separately added into 2 of the reactions while one of the reactions was probed with mouse monoclonal anti-His antibodies instead of […]. The agarose was harvested and washed the next day, and the bound proteins analyzed by SDS-PAGE. The gel was blotted and detected with anti-FLAG antibodies. The results are shown in FIG. 23 (the left panel contains 1/10th of the input of the pre-cleared U2OS cell lysate while the right panel contains the proteins eluted from the Protein A-agarose). […] Anti-DP-1 was used as a positive control for immunoprecipitation since it is known that TRIP-Br1 interacts directly with DP-1.

FLAG-TRIP-Br1 = test: Western blot with TB1-27#2 and peptide competition; assay type: binding, human; settings: lysates of transfected U2OS cells
Procedure: For Western blot analysis, U2OS cells transfected with the pcDNA3 vector, pcDNA3 vector with TRIP-Br1 insert or TRIP-Br2 insert were harvested. The lysates were separated in a 10% acrylamide gel and blotted onto a transfer membrane. The blot was cut and probed with a mouse monoclonal anti-FLAG antibody or TB1-27#2. For 2 sections, TB1-27 and Cyr61 peptides were added in addition to TB1-27#2 as a source of competition.

WI-38 cells [1] = test: Colony formation assay of WI-38 cells (crystal violet); assay type: cell-based, human; settings: WI-38, serum-induced, 72 h
Procedure: (§1) DNA enzyme transfection. WI-38 cells were rendered quiescent by cultivation in serum-free medium for 72 h before being transfected with DNA enzyme (0.1 μM) using Superfect as reported previously (Santiago, F. S., et al. Nat Med 5, 1264-1269 (1999)) in accordance to manufacturer's recommendations (Qiagen).
Cell proliferation assays. For the BrdU incorporation assays, growth-quiescent WI-38 cells in 96-well dishes were transfected with DNA enzyme and/or 100 ng of pCMV/E2F1, pCMV/DP1, pRSV/Cyclin E, or pCMV/Cdk2 and then exposed to Bromodeoxyuridine (BrdU, 100 μM) in the presence or absence of 10% FBS for 20 h. Bromodeoxyuridine (BrdU) incorporation was monitored with a calorimetric ELISA assay using a cell proliferation kit according to manufacturer's recommendations (Boehringer Mannheim). For manual cell count, growth-quiescent WI-38 cells in 24-well dishes were transfected with DNA enzyme and then exposed to 10% FBS for 72 h. The cells were rinsed with PBS, pH 7.4, and trypsinized, and 10 μl of cell suspension was taken from each sample and mixed with equal volume of trypan blue stain (Sigma, 0.4% w/v in 1×PBS). The number of unstained cells was enumerated manually using a hemocytometer. […] Cells were stained in situ with crystal violet (0.75% w/v hexamethyl-p-rosaniline chloride [SIGMA], 50% ethanol, 1.75% w/v paraformaldehyde, 0.25% w/v NaCl) for 10 min, and then rinsed thoroughly with deionized water to remove excess stains.
FIG. 12: (A) E-Br1 or E-Br2 inhibits cell proliferation. Sub-confluent WI-38 cells were serum-starved for 72 h. Following DNA enzyme transfection, the cultures were re-stimulated with serum and allowed to proliferate. After 72 h, cells were harvested for viable cell count analysis. 10 μl of cell suspension from each sample was mixed with equal volume of 0.4% trypan blue stain. The number of unstained cells was enumerated manually using a hemocytometer. Data represent the average of at least two independent experiments. […] (B) E-Br1 or E-Br2 suppresses colony formation. Sub-confluent WI-38 cells were serum-starved for 72 h. […]

hTRIP-Br1 mRNA = test: Semi-quantitative RT-PCR of intact hTRIP-Br1 transcripts in WI-38 cells; assay type: cell-based, human; settings: WI-38, 0.1 μM, 16 h post-stimulation with 10% FBS
Procedure: as §1
(§2) Semi-quantitative RT-PCR. Following various treatments, WI-38 cells in 6-well culture dish were subjected to total RNA extraction using the TRIZOL® Reagent (Life Technologies). Total RNA (4 μg) was reversed transcribed using oligo-dT and M-MLV reverse transcriptase in a total reaction volume of 20 μl. Polymerase Chain Reactions (PCR) were carried out on 3 μl cDNA sample in the presence of […] deoxyribonucleotide triphosphates (dNTPs) and 40 μM of specific primer pairs in a total reaction volume of 50 μl. […] Post-PCR samples were analyzed by agarose gel electrophoresis.
(§3) FIG. 11: (A) hTRIP-Br1 and hTRIP-Br2 expression is serum-inducible. […] At 24 h post-serum re-stimulation, semi-quantitative RT-PCR analysis was performed on total RNA to assess hTRIP-Br1 and hTRIP-Br2 expression. β-actin was included as an internal control. […] Semi-quantitative RT-PCR analysis was performed on total RNA to assess hTRIP-Br1 and hTRIP-Br2 expression. β-actin was included as an internal control. […]

hTRIP-Br2 mRNA = test: Semi-quantitative RT-PCR of intact hTRIP-Br2 transcripts in WI-38 cells; assay type: cell-based, human; settings: WI-38, 0.1 μM, 16 h post-stimulation with 10% FBS
Procedure: as §1, §2, §3

WI-38 fibroblasts = test: Trypan blue exclusion manual cell count of serum-stimulated WI-38 cells; assay type: cell-based, human; settings: WI-38, 0.1 μM, 72 h post-stimulation
Procedure: as §1
Cell proliferation assays. For the BrdU incorporation assays, growth-quiescent WI-38 cells in 96-well dishes were transfected with DNA enzyme and/or 100 ng of pCMV/E2F1, pCMV/DP1, pRSV/Cyclin E, or pCMV/Cdk2 and then exposed to Bromodeoxyuridine (BrdU, 100 μM) in the presence or absence of 10% FBS for 20 h. Bromodeoxyuridine (BrdU) incorporation was monitored with a calorimetric ELISA assay using a cell proliferation kit according to manufacturer's recommendations (Boehringer Mannheim). For manual cell count, growth-quiescent WI-38 cells in 24-well dishes were transfected with DNA enzyme and then exposed to 10% FBS for 72 h. The cells were rinsed with PBS, pH 7.4, and trypsinized, and 10 μl of cell suspension was taken from each sample and mixed with equal volume of trypan blue stain (Sigma, 0.4% w/v in 1×PBS). The number of unstained cells was enumerated manually using a hemocytometer. For colony formation assays, growth-quiescent WI-38 cells in 12-well dishes were transfected with DNA enzyme and then exposed to 10% FBS for 120 h. […]

WI-38 cells [2] = test: BrdU incorporation, serum-induced S phase entry of WI-38 cells; assay type: cell-based, human; settings: WI-38, 0.1 μM, 20 h; compared to unstimulated cells
Procedure: as §1
Cell proliferation assays. For the BrdU incorporation assays, growth-quiescent WI-38 cells in 96-well dishes were transfected with DNA enzyme and/or 100 ng of pCMV/E2F1, pCMV/DP1, pRSV/Cyclin E, or pCMV/Cdk2 and then exposed to Bromodeoxyuridine (BrdU, 100 μM) in the presence or absence of 10% FBS for 20 h. Bromodeoxyuridine (BrdU) incorporation was monitored with a calorimetric ELISA assay using a cell proliferation kit according to manufacturer's recommendations (Boehringer Mannheim). For manual cell count, growth-quiescent WI-38 cells in 24-well dishes were transfected with DNA enzyme and then exposed to 10% FBS for 72 h. The cells were rinsed with PBS, pH 7.4, and trypsinized, and 10 μl of cell suspension was taken from each sample and mixed with equal volume of trypan blue stain (Sigma, 0.4% w/v in 1×PBS). The number of unstained cells was enumerated manually using a hemocytometer. For colony formation assays, growth-quiescent WI-38 cells in 12-well dishes were transfected with DNA enzyme and then exposed to 10% FBS for 120 h. Cells were stained in situ with crystal violet (0.75% w/v hexamethyl-p-rosaniline chloride [SIGMA], 50% ethanol, 1.75% w/v paraformaldehyde, 0.25% w/v NaCl) for 10 min, and then rinsed thoroughly with deionized water to remove excess stains.
FIG. 13: (A) E-Br1 or E-Br2 suppresses serum-inducible S phase entry. Sub-confluent WI-38 cells were serum-starved for 72 h. Following DNA enzyme transfection, the cultures were re-stimulated with serum and allowed to proliferate in BrdU labeling medium. After 20 h, cells were assayed for BrdU incorporation with a colorimetric ELISA assay. Values represent the average of at least two independent experiments. […] Sub-confluent WI-38 cells were serum-starved for 72 h. […]

PARP cleavage = test: Western blot analysis of PARP cleavage in U2OS cells; assay type: cell-based, human; settings: 25 and 250 μM, 24 h
Procedure: Denaturing SDS-PAGE and western blotting. Proteins from whole cell lysate and IP complexes were separated using standard denaturing polyacrylamide gel electrophoresis as described previously (Hsu, S. I. H., et al. EMBO J 20, 2273-2285 (2001)).
(§4) FIG. 6: Caspase assay. (A) Caspase 3 protease activity in U2OS cells exposed to either Eto (Etoposide) for 24 h or 50 μM decoy peptides for 48 or 72 h, were assayed using the Ac-DEVD-AFC fluorogenic substrate. […] Values represent the average +/− standard deviation of two independent experiments. Control: cells cultured in normal growth medium; Vehicle: cells cultured in the presence of 0.5% DMSO; (B) Western blot analysis of PARP cleavage. U2OS cells were exposed to either Eto (Etoposide) for 24 h or 50 μM decoy peptides for 72 h. Lane 1: Vehicle cells (cultured in the presence of 0.5% DMSO for 24 h); Lane 2: 25 μM Eto; Lane 3: 250 μM Eto; Lane 4: Vehicle (cells cultured in the presence of 0.5% DMSO for 72 h); Lane 5: *SCR; Lane 6: *Br1; Lane 7: *Br2.

[3] = system: caspase-3 protease activity; test: Caspase assay with Ac-DEVD-AFC in U2OS cells; assay type: cell-based, human; settings: 24 h
Procedure: Caspase assay. Both adherent and detached cells in 6-well dishes were harvested by centrifugation at 2000 rpm for 15 min at 4° C. The resulting cell pellets were incubated in 50 μl of chilled lysis buffer (Clontech) on ice for 10 min. Cell lysates were incubated in a reaction mix containing 10 mM HEPES, 2.0 mM EDTA, 10 mM KCl, 1.5 mM MgCl2, 1.0 mM PMSF, aprotinine, pepstatin A and leupeptine (20 μM each), 6.0 mM DTT and Ac-DEVD-AFC (4.0 μg/ml). Reactions were allowed to proceed at room temperature. Fluorescence readings were taken at 15 min intervals for 1 h using a spectrofluorometer (excitation wavelength: 400 nm; emission wavelength: 505 nm).
as §4

Compound: COC(=O)Nc1nc2ccc(C(=O)c3cccs3)cc2[nH]1 [nocodazole]
- cells arrested at the G2/M boundary with 4N DNA content (U2OS cells): more than 90%

- effect of competing peptide on TB1-27#2 binding to FLAG-TRIP-Br1 in immunoprecipitation (FLAG-TRIP-Br1 protein): abolished the binding
Compound: DPGHTAAVAQAPPAVAS (Immunogenic peptide from human TRIP-Br1; listed as Homo sapiens) [TB1-27]
- blocking of TB1-27#2 binding in Western blot (FLAG-TRIP-Br1): able to block the binding

Compound: 5′-C AGCTACTGTGGCTAGCTACAACGACCTGTCAT-3′ (DNA CAGCTACTGTGGCTAGCTACAACGACCTGTCAT; DNA, 3' [invdT], backbone not given here) [E-SCR, reference compound]
- colony forming potential (WI-38 cells [1]): colony forming potential similar to the normal and the vehicle-treated controls
- serum-inducible steady-state hTRIP-Br1 mRNA level (hTRIP-Br1 mRNA): no effect
- serum-inducible steady-state hTRIP-Br2 mRNA level (hTRIP-Br2 mRNA): no effect
- effects on WI-38 growth as compared to vehicle-treated cells (WI-38 fibroblasts): no significant effects
- BrdU incorporation on serum stimulation (WI-38 cells [2]): approximately twice as much BrdU

Compound: COc1cc([C@@H]2c3cc4c(cc3[C@@H](O[C@@H]3O[C@@H]5CO[C@@H](C)O[C@H]5[C@H](O)[C@H]3O)[C@H]3COC(=O)[C@H]23)OCO4)cc(OC)c1O [Etoposide, etoposide, reference compound]
- PARP cleavage (PARP cleavage): resulted in PARP cleavage in a dose-dependent manner
- caspase-3 activity [3]: dose-dependent stimulation of caspase-3 activity several orders of magnitude above baseline
